Here are results for one compound from US20260144769A1, “4-PHENYLBUTYRATE RESTORED GABA UPTAKE AND REDUCED SEIZURES IN SLC6A1 VARIANT-MEDIATED DISORDERS” (Vanderbilt University, priority 2022, published 2026).

For test [1], the system named is GAT-1 in patient astrocytes. Briefly: 3H GABA uptake, patient iPSC derived astrocytes. In kind it is cell-based, human. The conditions noted are these: PBA 2 mM. The method, then:
Live images of human neural progenitor cells (NPCs), astrocytes and GABAergic inhibitory neurons differentiated from the human induced pluripotent stem cells (iPSCs) on the day of experiment. […] The DMSO treated corrected or patient cells was taken as 1. […] GABA flux was measured after 30 min transport at room temperature. The influx of GABA, expressed in pmol/μg protein/min, was averaged from duplicates for each condition and for each transfection. The average counting was DMSO treated condition taken as 1. In FIG. 5B, FIG. 5D and FIG. 5F, 966 stands for CI-966 (50 μM) and 711 stands for NNC-711 (35 μM) that was applied 30 min to the astrocytes transfected with the wildtype GAT-1^YFP before preincubation and removed during preincubation. In FIGS. 5B and D, ***p<0.001 vs. corrected DMSO treated. § § <0.01, § § § p<0.001 vs. patient DMSO treated. […] In FIGS. 5B-E, n=4-8 batches of cells. In FIG. 5F, n=4-5 different transfections). Unpaired t test was used for FIG. 5C and FIG. 5E. […] Values were expressed as mean±S.E.M.). […]
Briefly, cells were cultured in […] dishes for 3 days before the GABA uptake experiment in DMEM with 10% fetal bovine serum and 1% penicillin/streptomycin. […] Glacial acetic acid was added, and lysates were then determined on a liquid scintillator with QuantaSmart. […]

For test [2], the system named is GAT-1. The test can be described thus: GAT-1 protein expression in brain regions of SLC6A1^+/A288V heterozygous mice. To be noted: A288V het; cerebellum; PBA 100 mg/kg, 7 days. Type of test: in vivo, mouse. The text has this:
FIGS. 8C-D show integrated density values (IDVs) for total GAT-1 from wild-type and het KI were normalized to the Na^+/K^+ ATPase or anti-glyceraldehyde-3-phosphate dehydrogenase (GAPDH) loading control (LC) in each specific brain region and plotted. N=4 from 4 pairs of mice. […] The vehicle treated in each brain region was taken as 1. N=4 from 4 pairs of mice for FIG. 8C, FIG. 8D, FIG. 8G and FIG. 8H, Values were expressed as mean±S.E.M. One way ANOVA or unpaired t test.
The working solution was stored at 4° C.
Data were expressed as mean±SEM. Proteins were quantified by Odyssey software and data were normalized to loading controls and then to the wildtype subunit protein, which was arbitrarily taken as 1 in each experiment. Fluorescence intensities from confocal microscopy experiments were determined using MetaMorph imaging software, and the measurements were carried out in ImageJ. For statistical significance, one-way or two-way analysis of variance (ANOVA) with post hoc Dunnett or Newman-Keuls test were used. In some cases, unpaired t-test or one sample t-test was performed (GraphPad Prism, La Jolla, CA), and statistical significance was taken as p<0.05.

Test [3] deals with neural progenitor cells. Briefly: GABA uptake in neural progenitor cells. The conditions noted are these: NPCs; data not shown. Type of test: cell-based. The method, then: NPCs were differentiated from iPSCs at passage 22-24 with differentiation of neural progenitor cells (NPCs) was induced by STEMdiff SMADi Neural induction kit from […]. iPSCs were seeded in a Geltrex coated dish at a density of ˜2×10^6 cells/per one 35 mm^2 dish or 6 well plate. The medium was refreshed daily, and the cells were passaged at day 5-7. NPCs at Passage 1 which was at least 10-12 days after neural induction were used for this study.
Briefly, cells were cultured in […] dishes for 3 days before the GABA uptake experiment in DMEM with 10% fetal bovine serum and 1% penicillin/streptomycin. The cells were then transfected with equal amounts of the wildtype or the mutant GAT-1 cDNAs (1 μg) for each condition at 24 hrs or 48 hrs after plating. GABA uptake assay was carried out 48 hrs after transfection. The cells were incubated with preincubation solution for 15 min and then incubated with preincubation solution containing 1 μci/mL 3H GABA and 10 μM unlabeled GABA for 30 min at room temperature. After washing, the cells were lysed with 0.25 N NaOH for 1 hr. Glacial acetic acid was added, and lysates were then determined on a liquid scintillator with QuantaSmart. The flux of GABA (pmol/μg/min) was averaged with at least triplets for each condition at each transfection. The average counting was taken as n=1. […]

Take `O=C(O)CCCc1ccccc1` [PBA, 4-phenylbutyric acid]: in test [1] (24 hrs), the “GABA uptake normalized to its DMSO treated” value is reported as 1.387±0.08. For the same compound, the “GABA uptake of the patient cells as % of the corrected cells” value in test [1] (24 hrs (57% with DMSO)) turned out to be 81%. Besides, the “GAT-1 expression vs. same brain region of vehicle treated mice taken as 1” value in test [2] was determined as 1.045±0.028. The “GABA uptake in neural progenitor cells after PBA treatment” value in test [3] was “increase”.
